Data on twelve compounds can be found in patent US9255100B2 (BAYER INTELLECTUAL PROPERTY GMBH, priority 2010, dated 2016).

SMILES strings stand for the structures.

The assay concerns the target T1, N-terminally GST-tagged human full length recombinant Mps-1 kinase (Homo sapiens, UniProt P33981).
T1 construct: N-terminally GST-tagged human full length recombinant Mps-1 kinase; purchased Invitrogen, Karslruhe, Germany PV4071
T1 sequence (P33981 1-857): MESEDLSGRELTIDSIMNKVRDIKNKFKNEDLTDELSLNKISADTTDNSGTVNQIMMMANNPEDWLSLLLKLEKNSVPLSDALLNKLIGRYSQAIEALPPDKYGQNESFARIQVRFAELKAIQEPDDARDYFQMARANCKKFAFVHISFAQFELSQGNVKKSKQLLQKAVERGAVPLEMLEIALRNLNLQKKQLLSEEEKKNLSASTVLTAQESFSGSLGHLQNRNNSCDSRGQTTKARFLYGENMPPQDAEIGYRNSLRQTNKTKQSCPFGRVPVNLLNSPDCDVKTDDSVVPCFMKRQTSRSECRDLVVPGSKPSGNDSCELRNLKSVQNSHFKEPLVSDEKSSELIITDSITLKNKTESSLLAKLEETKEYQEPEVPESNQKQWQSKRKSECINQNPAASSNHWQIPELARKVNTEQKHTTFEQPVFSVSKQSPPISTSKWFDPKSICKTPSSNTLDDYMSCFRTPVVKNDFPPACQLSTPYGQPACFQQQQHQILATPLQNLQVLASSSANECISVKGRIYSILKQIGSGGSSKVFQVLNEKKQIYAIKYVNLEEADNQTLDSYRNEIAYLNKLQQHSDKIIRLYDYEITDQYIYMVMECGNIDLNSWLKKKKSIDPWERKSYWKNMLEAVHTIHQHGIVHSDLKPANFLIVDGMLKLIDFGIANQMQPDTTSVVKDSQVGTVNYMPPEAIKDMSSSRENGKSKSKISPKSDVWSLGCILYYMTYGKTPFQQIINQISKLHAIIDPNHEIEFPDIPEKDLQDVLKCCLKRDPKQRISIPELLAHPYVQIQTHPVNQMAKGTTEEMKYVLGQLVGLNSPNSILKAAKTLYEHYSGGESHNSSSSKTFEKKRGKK
As to the kind of experiment: Mps-1 kinase assay (TR-FRET). Format: biochemical. The conditions noted are these: Mps1 IC50 [nM], 10 μM ATP, 1 μM peptide substrate, 60 min at 22° C. In outline:
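Compounds were tested against recombinant full-length Mps-1 bearing an N-terminal GST tag, about 1 nM final, with a biotinylated amide-capped peptide as substrate. Detection reagents were then bound for 1 h at 22° C and the product read by TR-FRET.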
In general terms: In TR-FRET formats the signal depends on donor and acceptor labels being close together.
As for `Cc1cc(-c2cnc3c(NCC(C)(C)O)cc(Oc4ccc(N5CCNCC5)cc4)nn23)ccc1C(=O)NC1CC1` [Example 320, N-cyclopropyl-4-{8-[(2-hydroxy-2-methylpropyl)amino]-6-[4-(piperazin-1-yl)phenoxy]imidazo [1,2-b]pyridazin-3-yl}-2-methylbenzamide], the IC50 (usually the concentration that gives 50% inhibition) stood at 3.3 nM.

As to `C=Cc1cc(NCC(C)(C)O)c2ncc(-c3ccc(C(=O)NC4CC4)c(C)c3)n2n1` [Example 40, N-cyclopropyl-4-{8-[(2-hydroxy-2-methylpropyl)amino]-6-vinylimidazo[1,2-b]pyridazin-3-yl}-2-methylbenzamide], the IC50 stood at 111 nM. Regarding `Cc1cc(-c2cnc3c(NCC(C)(C)O)cc(Oc4cccc(C#N)c4)nn23)ccc1C(=O)NC1CC1` [Example 82, 4-{6-(3-Cyanophenoxy)-8-[(2-hydroxy-2-methylpropyl)amino]imidazo[1,2-b]pyridazin-3-yl}-N-cyclopropyl-2-methylbenzamide], the concentration for half-maximal inhibition (IC50) was determined as 0.3 nM. Next, `Cc1cc(-c2cnc3c(NCC(C)(C)O)cc(Oc4ccccc4)nn23)ccc1C(=O)NC1CC1` [Example 76, N-cyclopropyl-4-{8-[(2-hydroxy-2-methylpropyl)amino]-6-phenoxyimidazo[1,2-b]pyridazin-3-yl}-2-methylbenzamide]: under 0.7 nM. Next, `Cc1cc(-c2cnc3c(NCC(C)(C)N)cc(Oc4ccc(F)c(F)c4)nn23)ccc1C(=O)NC1CC1` [Example 520, 4-{8-[(2-amino-2-methylpropyl)amino]-6-(3,4-difluorophenoxy)imidazo[1,2-b]pyridazin-3-yl}-N-cyclopropyl-2-methylbenzamide]: 0.2 nM. With `Cc1cc(-c2cnc3c(NCC(C)(C)O)cc(SC4CCCC4)nn23)ccc1C(=O)NC1CC1` [Example 336, 4-{6-(cyclopentylsulfanyl)-8-[(2-hydroxy-2-methylpropyl)amino]imidazo[1,2-b]pyridazin-3-yl}-N-cyclopropyl-2-methyl-benzamide] the figure was 1 nM; with `Cc1cc(-c2cnc3c(NCCn4cccn4)cc(Oc4cccc(F)c4)nn23)ccc1C(=O)NC1CC1` [Example 515, N-cyclopropyl-4-[6-(3-fluoro-phenoxy)-8-{[2-(1H-pyrazol-1-yl)ethyl]amino}imidazo[1,2-b]pyridazin-3-yl]-2-methyl-benzamide], 0.4 nM. With `Cc1cc(-c2cnc3c(NCC(C)(C)N)cc(Sc4cccc(F)c4)nn23)ccc1C(=O)NC1CC1` [Example 78, 4-{8-[(2-Amino-2-methylpropyl)amino]-6-[(3-fluorophenyl)sulfanyl]imidazo[1,2-b]pyridazin-3-yl}-N-cyclopropyl-2-methylbenzamide], the IC50 worked out at 0.2 nM. Next, `Cc1cc(-c2cnc3c(NCC(C)(C)O)cc(Sc4c(F)cccc4F)nn23)ccc1C(=O)NC1CC1` [Example 218, N-cyclopropyl-4-{6-[(2,6-difluorophenyl)sulfanyl]-8-[(2-hydroxy-2-methylpropyl)amino]imidazo[1,2-b]pyridazin-3-yl}-2-methylbenzamide]: 3.7 nM. With `Cc1cc(-c2cnc3c(NCCC(=O)N(C)C)cc(Oc4cccc(F)c4)nn23)ccc1C(=O)NC1CC1` [Example 493, N-cyclopropyl-4-[8-{[3-(dimethyl-amino)-3-oxopropyl]amino}-6-(3-fluorophenoxy)imidazo[1,2-b]pyridazin-3-yl]-2-methyl-benzamide] the figure was 0.3 nM; with `CNc1cc(Oc2ccc(OC)c(F)c2)nn2c(-c3ccc(C(=O)NC4CC4)c(C)c3)cnc12` [Example 535, N-cyclopropyl-4-[6-(3-fluoro-4-methoxy-phenoxy)-8-(methyl-amino)imidazo[1,2-b]pyridazin-3-yl]-2-methylbenzamide], 0.1 nM; with `Cc1cc(-c2cnc3c(NCC(C)C)cc(Sc4ccccc4)nn23)ccc1C(=O)NC1CC1` [Example 197, N-cyclopropyl-2-methyl-4-{8-[(2-methylpropyl)amino]-6-(phenylsulfanyl)imidazo[1,2-b]pyridazin-3-yl}benzamide], under 1 nM.
